Legend:
Type in all cases: cell-based
[1] = tested on: eight human cancer cell lines; assay: Average cytotoxicity across the human cancer cell line panel
Text: (§1) Five serial 1:2 dilutions were made with anhydrous DMSO at 100× the final concentration used in the assay.

[2] = tested on: NCI/ADR RES (human breast carcinoma) cells; assay: Cell Titer-Glo cytotoxicity assay, NCI/ADR-RES
Text: as §1

[3] = tested on: NCI-H460 (human breast carcinoma) cells; assay: Cell Titer-Glo cytotoxicity assay, NCI-H460; conditions: inferred from racemate 13 vs 2
Text: as §1

[4] = tested on: MCF7 (human breast carcinoma) cells; assay: Cell Titer-Glo cytotoxicity assay, MCF7; conditions: inferred from racemate 13 vs 2
Text: as §1

For S=C=NCc1ccccc1 [Compound 23, 1-(isothiocyanatomethyl)benzene], the “fold increase in potency over fully-saturated 18” value ([1]; average IC50 compared) was over 3 fold.
In the case of C[S@+]([O-])CCCCN=C=S [D-sulforaphane], the “% bioactive” value ([2]; NCI/ADR RES, inferred from racemate 13 vs 2) is reported as 9%, the “% bioactive” value [3] is reported as 14% and the “% bioactive” value [4] is reported as 0%.
In the case of S=C=NCc1cccnc1 [Compound 22, 3-(isothiocyanatomethyl)pyridine], the “fold increase in potency over 23” value ([2]; NCI/ADR RES cells) is reported as at most 10 fold and the “increase in effectiveness relative to L-sulforaphane” value ([1]; potency in NCI/ADR RES and selectivity over NmuMG taken together) is reported as about 30 fold.

— patent publication US20130116203A1, “ISOTHIOCYNATES AND GLUCOSINOLATE COMPOUNDS AND ANTI-TUMOR COMPOSITIONS CONTAINING SAME” (priority 2011, published 2013)
